US10633338B2, “Binding Function 3 (BF3) site compounds as therapeutics and methods for their use” (THE UNIVERSITY OF BRITISH COLUMBIA, priority 2014, dated 2020)
Read-outs that look alike come from different tables or passages of the source.

Experiments:
PSA = assay: Prostate Surface Antigen (PSA) assay, PSA excreted into the media; assay type: cell-based, human
Method: The evaluation of PSA excreted into the media was performed in parallel to the eGFP assay using the same plates (see above description). After the cells were incubated for 3 days 150 μl of the media was taken from each well, and added to 150 μl of PBS.

androgen receptor (AR) = target: T1, androgen receptor (AR) (Homo sapiens, UniProt P10275, T878A); assay: eGFP cellular AR transcription assay; assay type: cell-based
T1 construct: stably transfected eGFP-expressing LNCaP human prostate cancer cells (LN-ARR2PB-eGFP) containing an androgen responsive probasin-derived promoter; endogenous in cells; host or cells: LNCaP (LN-ARR2PB-eGFP)
T1 sequence (P10275 1-920 T878A): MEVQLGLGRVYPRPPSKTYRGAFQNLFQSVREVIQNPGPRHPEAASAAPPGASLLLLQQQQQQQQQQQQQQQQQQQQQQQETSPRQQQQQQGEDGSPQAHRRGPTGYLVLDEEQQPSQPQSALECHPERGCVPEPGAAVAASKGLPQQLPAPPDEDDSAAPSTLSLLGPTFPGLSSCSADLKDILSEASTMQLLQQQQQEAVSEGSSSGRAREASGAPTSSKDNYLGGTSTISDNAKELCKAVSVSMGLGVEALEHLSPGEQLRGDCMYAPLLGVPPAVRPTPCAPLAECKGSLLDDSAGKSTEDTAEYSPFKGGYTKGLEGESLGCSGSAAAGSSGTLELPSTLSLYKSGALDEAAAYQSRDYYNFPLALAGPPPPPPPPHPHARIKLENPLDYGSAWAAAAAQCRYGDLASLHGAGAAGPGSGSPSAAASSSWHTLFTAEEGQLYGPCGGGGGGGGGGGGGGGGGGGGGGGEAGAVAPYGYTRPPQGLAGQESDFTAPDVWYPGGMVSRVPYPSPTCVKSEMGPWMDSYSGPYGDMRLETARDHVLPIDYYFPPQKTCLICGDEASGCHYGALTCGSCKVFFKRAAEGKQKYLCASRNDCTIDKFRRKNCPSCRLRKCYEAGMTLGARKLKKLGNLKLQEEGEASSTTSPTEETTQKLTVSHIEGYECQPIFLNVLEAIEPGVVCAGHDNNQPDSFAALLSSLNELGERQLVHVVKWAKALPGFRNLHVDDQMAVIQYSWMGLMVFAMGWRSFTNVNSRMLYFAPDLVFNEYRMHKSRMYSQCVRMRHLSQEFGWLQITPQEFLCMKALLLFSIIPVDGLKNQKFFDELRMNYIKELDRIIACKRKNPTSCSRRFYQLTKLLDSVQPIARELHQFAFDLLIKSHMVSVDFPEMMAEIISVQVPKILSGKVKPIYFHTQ
Method: After 5 days, the cells were plated into a 96-well plate (35,000 cells/well) with 0.1 nM of the synthetic androgen R1881 and increasing concentrations (0-100 μM) of compound.
After 5 days, the cells were plated into a 96-well plate (35,000 cells/well) with 0.1 nM R1881 and increasing concentrations (0-100 μM) of compound.
In this assay, the expression of eGFP is under the control of an androgen responsive probasin-derived promoter and can quantify AR transcriptional activity.

[1] = Homo sapiens, 72 h, same plates as eGFP assay, media after 3 days, read-out: IC50 (PSA)
[2] = LN-ARR2PB-eGFP LNCaP cells, 0.1 nM R1881, 3 days, 0-100 μM compound, read-out: IC50 (eGFP)
[3] = same plates as eGFP assay, media after 3 days
[4] = LN-ARR2PB-eGFP LNCaP cells, 0.1 nM R1881, 3 days, 0-100 μM compound
[5] = Homo sapiens, 72 h, PSA excreted into media, same plates as eGFP assay, 3 days incubation, read-out: PSA IC50
[6] = LN-ARR2PBeGFP LNCaP cells, 0.1 nM R1881, 3 days incubation, read-out: eGFP IC50
[7] = PSA excreted into media, same plates as eGFP assay, 3 days incubation, read-out: PSA IC50

SMILES | IC50 (PSA; [1]) [nM] | IC50 (androgen receptor (AR); [2]) [nM] | IC50 (PSA; [5]) [nM] | also measured
c1ccc2c(c1)NC(c1c[nH]c3ccccc13)C21CCCCC1 (stereo not shown) [13 534] | 1250 | 800 |  | 
Cc1ccc2[nH]cc(C3Nc4ccccc4C3(C)C)c2c1 (stereo not shown) [13 535] | 1870 | 1500 |  | 
COc1ccc2[nH]cc(C3Nc4ccccc4C3(C)C)c2c1 (stereo not shown) [13 536] | 2520 | 2200 |  | 
CC1(C)C(c2c[nH]c3ncccc23)=Nc2ccccc21 [13 537] | 810 | 700 |  | 
CC1(C)C(c2c[nH]c3c(O)cccc23)=Nc2ccccc21 [13 541] | 940 | 500 |  | 
CC1(C)c2ccc(Br)cc2NC1c1c[nH]c2c(OCc3ccccc3)cccc12 (stereo not shown) [13 543] | 3190 | 3700 |  | 
Cc1ccc2[nH]cc(C3Nc4ccccc4C34CCCCC4)c2c1 (stereo not shown) [13 548] | 4240 | 3200 |  | 
Cc1cccc2c(C3Nc4ccccc4C34CCCCC4)c[nH]c12 (stereo not shown) [13 549] | 2570 | 1700 |  | 
Oc1cccc2c(C3Nc4ccccc4C34CCCCC4)c[nH]c12 (stereo not shown) [13 552] | 1140 | 1100 |  | 
COc1cccc2c(-c3cc(C)c4ccccc4n3)c[nH]c12 [13 554] | 670 | 600 |  | 
CC1(C)c2ccccc2NC1c1c[nH]c2ncccc12 (stereo not shown) [13 556] | 2180 | 2100 |  | 
c1ccc2nc(-c3c[nH]c4ccccc34)ccc2c1 [13 562] | 140 | 60 |  | 
Cc1cccc2c(-c3ccc4ccccc4n3)c[nH]c12 [13 566] |  |  |  | IC50 (PSA; Homo sapiens, 72 h, read-out: IC50 (PSA)): 56 nM
CCc1cccc2c(-c3ccc4ccccc4n3)c[nH]c12 [13 567] | 230 | 200 |  | 
Brc1ccc2c(-c3ccc4ccccc4n3)c[nH]c2c1 [13 568] | 1560 | 1300 |  | 
Cc1cccc2cnn(-c3ccc4ccccc4n3)c12 [13 575] | 1360 | 3500 |  | 
Fc1ccc2c(-c3ccc4ccccc4n3)c[nH]c2c1 [13 576] | 48 | 144 |  | 
Cc1ccc2[nH]cc(-c3ccc4ccccc4n3)c2c1 [13 577] | 1730 | 3200 |  | 
Brc1cccc2c(-c3ccc4ccccc4n3)c[nH]c12 [13 582] | 41 | 52 |  | 
c1ccc2nc(-c3c[nH]c4cnccc34)ccc2c1 [13 583] | 930 | 1100 |  | 

SMILES | IC50 (PSA; [1]) [nM] | IC50 (androgen receptor (AR); [2]) [nM] | IC50 (PSA; [5]) [nM] | also measured
c1ccc2ncc(-c3c[nH]c4ccncc34)cc2c1 [13 637] |  |  |  | IC50 (PSA) (PSA; [3]): IC50 (PSA) = Inactive; IC50 (eGFP) (androgen receptor (AR); [4]): IC50 (eGFP) = Inactive
COc1ccc(Br)cc1-c1c[nH]c2ccccc12 [13 638] |  |  |  | IC50 (PSA) (PSA; [3]): IC50 (PSA) = Inactive; IC50 (eGFP) (androgen receptor (AR); [4]): IC50 (eGFP) = Inactive
Cc1cccc2c(-c3ccc4cccc(Br)c4n3)c[nH]c12 [13 677] | 110 |  |  | 
c1ccc(-c2nc3ccccc3[nH]2)cc1 [13 686] |  |  |  | IC50 (PSA) (PSA; [3]): IC50 (PSA) = Inactive
Cc1ccc(/N=C/c2c[nH]c3ccccc23)cc1 [Compound 13247] |  |  | 430 | 
Cc1cccc2c(-c3ccc4ccccc4n3)c[nH]c12 [Compound 13566] |  |  | 11 | 
Cc1cccc2c(-c3ccc4cccc(Cl)c4n3)c[nH]c12 [Compound 13593] |  |  | 130 | 
CNC(=O)c1cccc2nc(-c3c[nH]c4c(C)cccc34)ccc12 [Compound 13597] |  |  | 132 | 
Cc1cc(F)cc2c(-c3ccc4ccccc4n3)c[nH]c12 [Compound 13601] |  |  | 165 | 
Cc1cccc2c(-c3ccc4c(C(F)(F)F)cccc4n3)c[nH]c12 [Compound 13602] |  |  | 182 | 
Cc1cccc2c(-c3ccc4ccc(Cl)cc4n3)c[nH]c12 [Compound 13606] |  |  | 1430 | 
Cc1c(F)ccc2c(-c3ccc4ccccc4n3)c[nH]c12 [Compound 13607] |  |  | 87 | 
Fc1cc(F)c2[nH]cc(-c3ccc4ccccc4n3)c2c1 [Compound 13610] |  |  | 13 | 
Cc1cccc2c(-c3ccc4ccc(F)cc4n3)c[nH]c12 [Compound 13611] |  |  | 121 | 
Fc1ccc2c(-c3ccc4ccccc4n3)c[nH]c2c1F [Compound 13618] |  |  | 130 | 
Clc1cccc2c(-c3ccc4ccccc4n3)c[nH]c12 [Compound 13622] |  |  | 75 | 
Fc1cc(Cl)c2[nH]cc(-c3ccc4ccccc4n3)c2c1 [Compound 13624] |  |  | 42 | 
Cc1cc(Cl)c2[nH]cc(-c3ccc4ccccc4n3)c2c1 [Compound 13625] |  |  | 1230 | 
Clc1cc(Cl)c2[nH]cc(-c3ccc4ccccc4n3)c2c1 [Compound 13627] |  |  | 1160 | 
Fc1cc(Cl)cc2c(-c3ccc4ccccc4n3)c[nH]c12 [Compound 13641] |  |  | 403 | 

SMILES | IC50 (PSA; [1]) [nM] | IC50 (androgen receptor (AR); [2]) [nM] | IC50 (PSA; [5]) [nM] | also measured
Fc1ccc2c(-c3ccc4ccccc4n3)c[nH]c2c1Cl [Compound 13642] |  |  | 25 | 
Cc1cccc2c(-c3cnc4ccccc4c3)c[nH]c12 [Compound 13643] |  |  | 156 | 
Cc1ccc(F)c2c(-c3ccc4ccccc4n3)c[nH]c12 [Compound 13650] |  |  |  | IC50 (androgen receptor (AR); [6]): 1630 nM
Fc1cc2[nH]cc(-c3ccc4cccc(F)c4n3)c2cc1F [Compound 13651] |  |  |  | IC50 (androgen receptor (AR); [6]): 404 nM
Cc1cccc2c(-c3cnc4ccccc4c3)c[nH]c12 [Compound 13654] |  |  |  | IC50 (PSA; [7]): 160 nM
Cc1cccc2c(-c3ccc4cccc(Br)c4n3)c[nH]c12 [Compound 13677] |  |  | 110 | 
Cc1cccc2c(-c3ccc4c(CO)cccc4n3)c[nH]c12 [Compound 13680] |  |  |  | IC50 (androgen receptor (AR); [6]): 800 nM
c1ccc(-c2nc3ccccc3[nH]2)cc1 [Compound 13686] |  |  |  | PSA IC50 (PSA; PSA excreted into media, same plates as eGFP assay, 3 days incubation): Inactive
Cc1cccc2c(-c3ccc4cccc(F)c4n3)c[nH]c12 [Compound 13692] |  |  | 82 | 
CNC(=O)c1cccc2nc(-c3c[nH]c4c(F)cccc34)ccc12 [Compound 13713] |  |  |  | IC50 (androgen receptor (AR); [6]): 37 nM
N#Cc1cc(F)cc2c(-c3ccc4cccc(Cl)c4n3)c[nH]c12 [Compound 13732] |  |  |  | IC50 (androgen receptor (AR); [6]): 420 nM
CNC(=O)c1cccc2nc(-c3c[nH]c4c(F)c(F)c(F)cc34)ccc12 [Compound 13754] |  |  |  | IC50 (PSA; [7]): 51 nM
Fc1cc2c(-c3ccc4c(C(F)(F)F)cccc4n3)c[nH]c2c(F)c1F [Compound 13761] |  |  | 383 | 
CNC(=O)c1cccc2nc(-c3c[nH]c4c(N5CCOCC5)c(F)c(F)cc34)ccc12 [Compound 13775] |  |  |  | IC50 (androgen receptor (AR); [6]): 3700 nM
Cc1cccc2c(-c3ccc4c(-c5cncs5)cccc4n3)c[nH]c12 [Compound 13782] |  |  |  | IC50 (androgen receptor (AR); [6]): 110 nM
N#Cc1cccc2c(-c3ccc4cccc(Cl)c4n3)c[nH]c12 [Compound 13785] |  |  |  | IC50 (androgen receptor (AR); [6]): 36 nM
N#Cc1cccc2c(-c3ccc4ccc(F)cc4n3)c[nH]c12 [Compound 13786] |  |  |  | IC50 (androgen receptor (AR); [6]): 13 nM
Cc1c(F)ccc2c(-c3ccc4cccc(Br)c4n3)c[nH]c12 [Compound 13787] |  |  |  | IC50 (androgen receptor (AR); [6]): 190 nM
